Source: patent publication US12065443B2, “Compounds and pharmaceutical compositions thereof for the treatment of diseases” (priority 2017, dated 2024)
pEC50, pIC50: −log10 of the molar value. Where two headings read alike, the source gives them in different places.

Columns and labels:
[1] = test system: LPS driven TNFα secretion in Peripheral Blood Mononuclear Cells (PBMC); assay: cells; format: cell-based; conditions: Homo sapiens, LPS 1 ng/mL, supernatant after 18-20 h, ELISA
Description: This assay measures the inhibition of LPS driven TNFα secretion by a test compound in Peripheral Blood Mononuclear Cells (PBMC), which in turn correlates with SIK inhibition.
PBMCs are isolated from human blood samples (buffy coats). The buffy coat is aseptically transferred into a 50 mL Falcon™ tube, and diluted 1/2 in Phosphate Buffered Saline (PBS). […] The tubes are centrifuged for 35 min at 400× g in temperature controlled centrifuge, without brake, at 25° C. PBMCs are aspirated from the white interface layer between sample and Lymphoprep. PBMCs are washed five times in PBS. […] The PBMCs are finally seeded at 400,000 PBMC/160 μL/96-well.
A compound dilution plate is made in 100% DMSO by 3-fold dilution of 10 mM stock solution of test compound. An intermediate dilution plate (10× final concentration) is made by diluting the compound dilution plate 50-fold in RPMI medium.
20 μL of the 10× final concentration compound is added to the cells and incubated for 1 hour at 37° C. before addition of trigger. No trigger conditions/trigger conditions are spiked with equal final DMSO concentrations of 0.2% DMSO. 20 μL of 10×LPS (final concentration 1 ng/mL) solution are added to all wells except for the ‘no trigger wells’ where 20 μL medium is added. Supernatant is collected after 18-20 h for IL-10 and TNFα determination using ELISA.
The plate is then washed once with PBST (PBS+0.05% Tween20) and once with PBS followed by the addition of 100 μL of blocking buffer (1% Bovine Serum Albumin (BSA)-5% Sucrose) and plates are sealed and incubated for at least 4 h at RT. After washing the plate once with PBST and once with PBS, 40 μL of standard or sample are added (TNFα standard curve is prepared using a 1/2 serial dilution starting from 16000 pg/mL; dilutions are made in dilution buffer (PBS+1% BSA)). Plates are washed twice with PBST, and once with PBS, after which 35 μL of the detection antibody is added (final concentration 0.25 μg/mL diluted in dilution buffer) and plates are incubated for at least 2 h at RT. Plates are washed twice with PBST, and once with PBS, where after 35 μL of Strep-HRP conjugate (0.5 μg/mL final concentration diluted in dilution buffer) is added. Plates are incubated in the dark, at RT for at least 45 min but no longer than 1 hour. Plates are washed twice with PBST, and once with PBS. Thereafter, 50 μL of luminol substrate is added to each well (prepared according to manufacturer's instructions), and incubated for 5 min at RT protected from light.
To measure the inhibition of LPS induced TNFα, percentage inhibition (PIN) values are calculated for all concentrations tested, compared to controls.
PIN values are plotted in concentration-response and EC50 values are derived using GraphPad Prism Software, applying 4-parameter nonlinear regression (sigmoidal) curve fitting.

[2] = test system: LPS-induced TNFα secretion in monocyte-derived macrophages (MdM); assay: MdM assay: LPS-triggered TNFα (ELISA); format: cell-based, human; conditions: Homo sapiens, Macrophage, LPS-triggered TNFα inhibition
Summary of the method: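 Human CD14+ monocytes isolated from buffy-coat PBMCs by magnetic beads, differentiated to macrophages; on day 10 compound preincubated 1 h at 37 °C, then LPS 200 ng/mL added (0.2% DMSO). Supernatant taken after 20 h; TNFα quantified by sandwich ELISA against standard curve.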

SIK2 [3] = target: T1, SIK2 (Homo sapiens, UniProt Q9H0K1); assay: biochemical; conditions: 33P radioactive SIK kinase assay, AMARA peptide, 10 μM ATP
T1 construct: purchased ThermoFisher Scientific PV4792
Summary of the method: (§1)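 Radiometric assay: SIK1, SIK2 or SIK3 phosphorylates AMARA peptide using unlabelled plus [^33P]-γ-ATP, reaction started by ATP addition. Stopped with 150 mM phosphoric acid, filter-harvested and washed; incorporated ^33P counted by scintillation. Controls: 1% DMSO and 10 μM staurosporine final.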

SIK1 [4] = target: T2, SIK1 (Homo sapiens, UniProt P57059); assay: biochemical
T2 construct: purchased Carna Biosciences 02-131
Summary of the method: as §1

SIK3 [5] = target: T3, SIK3 (Homo sapiens, UniProt Q9Y2K2); assay: biochemical
T3 construct: purchased SignalChem S12-11G-100
Summary of the method: as §1

SIK2 [6] = target: T1, SIK2; assay: biochemical; conditions: ADP-Glo SIK kinase assay
Summary of the method: (§2)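 Enzyme–substrate mix was started with ATP and incubated 120 min at RT. ADP formed was quantified by ADP-Glo: 40 min ATP depletion, then 30 min detection reagent converting ADP to ATP for luciferase luminescence, which rises with kinase activity. Controls: 1% DMSO and 10 μM staurosporine (final).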

SIK1 [7] = target: T2, SIK1; assay: biochemical; conditions: ADP-Glo SIK kinase assay
Summary of the method: as §2

SIK3 [8] = target: T3, SIK3; assay: biochemical; conditions: ADP-Glo SIK kinase assay
Summary of the method: as §2

[9] = test system: LPS triggered IL-10 secretion in monocyte-derived macrophages (MdM); assay: MdM assay: LPS-triggered IL-10 (ELISA); format: cell-based, human; conditions: maximal fold change vs LPS only, median across assays
Summary of the method: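 CD14+ monocytes isolated from human buffy-coat PBMCs and differentiated to macrophages for 10 days. Cells pre-treated with compound 1 h at 37° C (0.2% DMSO), then stimulated with 200 ng/mL LPS; IL-10 in supernatant at 2 h measured by ELISA (A450). Maximal fold change versus LPS only reported as median of two or more runs.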

[10] = 33P radioactive SIK kinase assay, AMARA peptide, 10 μM ATP, read-out: SIK1 IC50

T3 sequence (Q9Y2K2 whole entry): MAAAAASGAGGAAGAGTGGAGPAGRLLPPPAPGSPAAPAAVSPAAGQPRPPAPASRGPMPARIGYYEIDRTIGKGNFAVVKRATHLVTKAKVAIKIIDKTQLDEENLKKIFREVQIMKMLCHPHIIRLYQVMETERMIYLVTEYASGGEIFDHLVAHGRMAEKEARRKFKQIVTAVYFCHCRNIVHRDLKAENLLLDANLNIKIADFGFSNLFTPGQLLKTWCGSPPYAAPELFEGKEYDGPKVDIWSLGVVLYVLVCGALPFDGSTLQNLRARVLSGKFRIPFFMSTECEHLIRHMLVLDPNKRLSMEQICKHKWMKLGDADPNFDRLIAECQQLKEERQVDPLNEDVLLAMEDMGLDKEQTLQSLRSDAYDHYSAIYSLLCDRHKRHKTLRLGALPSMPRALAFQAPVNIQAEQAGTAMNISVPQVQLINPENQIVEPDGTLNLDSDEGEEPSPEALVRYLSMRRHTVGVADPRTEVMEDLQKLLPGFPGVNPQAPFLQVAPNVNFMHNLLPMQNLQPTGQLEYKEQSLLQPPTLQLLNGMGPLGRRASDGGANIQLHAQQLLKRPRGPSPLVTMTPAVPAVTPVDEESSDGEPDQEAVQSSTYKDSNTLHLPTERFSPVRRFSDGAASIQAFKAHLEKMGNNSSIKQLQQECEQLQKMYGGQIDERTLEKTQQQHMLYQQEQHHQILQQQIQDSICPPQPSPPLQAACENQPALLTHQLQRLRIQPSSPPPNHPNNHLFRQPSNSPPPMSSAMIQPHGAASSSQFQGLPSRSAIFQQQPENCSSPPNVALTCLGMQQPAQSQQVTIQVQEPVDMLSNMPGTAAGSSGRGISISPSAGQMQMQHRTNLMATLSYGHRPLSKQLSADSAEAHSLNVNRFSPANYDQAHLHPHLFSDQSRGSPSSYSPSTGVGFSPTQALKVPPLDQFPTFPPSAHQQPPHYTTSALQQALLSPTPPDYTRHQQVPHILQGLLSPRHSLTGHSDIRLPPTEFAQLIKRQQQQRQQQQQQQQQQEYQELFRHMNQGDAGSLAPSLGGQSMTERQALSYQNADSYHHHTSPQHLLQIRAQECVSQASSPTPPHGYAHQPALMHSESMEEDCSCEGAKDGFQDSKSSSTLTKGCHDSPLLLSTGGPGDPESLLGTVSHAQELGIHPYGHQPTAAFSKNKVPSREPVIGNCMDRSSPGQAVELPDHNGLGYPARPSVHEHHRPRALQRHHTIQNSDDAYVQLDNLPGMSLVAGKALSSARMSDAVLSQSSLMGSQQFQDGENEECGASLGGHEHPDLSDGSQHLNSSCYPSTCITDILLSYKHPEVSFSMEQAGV
T2 sequence (P57059 whole entry): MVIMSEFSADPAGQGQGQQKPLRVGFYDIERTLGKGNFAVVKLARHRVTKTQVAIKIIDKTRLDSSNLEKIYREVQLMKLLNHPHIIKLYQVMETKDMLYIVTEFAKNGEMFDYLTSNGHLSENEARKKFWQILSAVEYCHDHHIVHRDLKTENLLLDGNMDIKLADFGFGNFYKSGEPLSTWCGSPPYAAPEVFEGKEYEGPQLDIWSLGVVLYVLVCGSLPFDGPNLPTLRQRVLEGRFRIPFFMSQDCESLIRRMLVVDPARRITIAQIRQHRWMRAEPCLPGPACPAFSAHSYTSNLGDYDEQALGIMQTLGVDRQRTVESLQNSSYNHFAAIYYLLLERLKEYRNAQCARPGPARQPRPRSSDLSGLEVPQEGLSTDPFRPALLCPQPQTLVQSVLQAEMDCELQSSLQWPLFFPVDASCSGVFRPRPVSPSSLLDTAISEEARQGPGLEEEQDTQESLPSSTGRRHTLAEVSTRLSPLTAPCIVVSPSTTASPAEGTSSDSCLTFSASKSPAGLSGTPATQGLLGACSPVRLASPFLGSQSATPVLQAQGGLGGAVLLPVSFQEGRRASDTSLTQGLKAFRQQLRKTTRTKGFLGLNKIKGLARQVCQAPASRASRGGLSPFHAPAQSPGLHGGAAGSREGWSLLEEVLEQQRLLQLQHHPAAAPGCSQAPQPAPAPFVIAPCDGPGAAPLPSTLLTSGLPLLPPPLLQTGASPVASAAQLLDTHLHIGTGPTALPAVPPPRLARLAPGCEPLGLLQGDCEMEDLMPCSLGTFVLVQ
T1 sequence (Q9H0K1 whole entry): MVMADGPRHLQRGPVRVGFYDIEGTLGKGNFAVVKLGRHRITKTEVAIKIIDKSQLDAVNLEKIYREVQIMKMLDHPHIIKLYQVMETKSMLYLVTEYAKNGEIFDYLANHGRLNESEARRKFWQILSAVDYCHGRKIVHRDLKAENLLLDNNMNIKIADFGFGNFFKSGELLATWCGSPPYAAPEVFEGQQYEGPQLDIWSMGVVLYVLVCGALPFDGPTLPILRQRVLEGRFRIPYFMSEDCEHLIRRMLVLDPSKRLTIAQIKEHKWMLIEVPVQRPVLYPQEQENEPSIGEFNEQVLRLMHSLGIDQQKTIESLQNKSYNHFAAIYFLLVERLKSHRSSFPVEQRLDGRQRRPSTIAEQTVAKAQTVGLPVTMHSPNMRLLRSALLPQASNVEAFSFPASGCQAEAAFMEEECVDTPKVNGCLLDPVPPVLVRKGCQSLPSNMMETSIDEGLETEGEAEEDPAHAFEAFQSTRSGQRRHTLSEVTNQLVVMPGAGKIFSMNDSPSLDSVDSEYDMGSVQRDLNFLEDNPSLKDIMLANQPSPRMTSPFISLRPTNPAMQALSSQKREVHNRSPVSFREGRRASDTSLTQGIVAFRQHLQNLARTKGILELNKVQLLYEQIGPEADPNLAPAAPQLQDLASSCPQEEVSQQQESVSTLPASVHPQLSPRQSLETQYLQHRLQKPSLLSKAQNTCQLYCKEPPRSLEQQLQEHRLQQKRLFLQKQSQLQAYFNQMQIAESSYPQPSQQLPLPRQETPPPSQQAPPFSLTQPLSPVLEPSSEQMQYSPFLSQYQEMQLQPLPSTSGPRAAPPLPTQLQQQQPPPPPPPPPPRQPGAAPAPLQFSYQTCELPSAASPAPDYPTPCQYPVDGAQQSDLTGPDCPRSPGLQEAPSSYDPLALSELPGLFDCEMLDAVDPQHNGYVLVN

| pEC50 [2] | pIC50 (SIK2 [3]) | pIC50 (SIK1 [4]; [10]) | pIC50 (SIK3 [5]) | pIC50 (SIK2 [6]) | pIC50 (SIK1 [7]) | pIC50 (SIK3 [8]) | pIC50 (SIK1 [4]) | Compound | pEC50 [1] | IL-10 FCmax median [9] |
| --- | --- | --- | --- | --- | --- | --- | --- | --- | --- | --- |
| 6.00 to 7.00 | 8.00 to 11.00 | 8.00 to 11.00 | 8.00 to 11.00 | – | – | – | – | COc1cc(-n2cnc3cc(-c4cnn(C5CNC5)c4)ccc32)cc(OC)c1C(=O)NCC(F)(F)F [Cpd 94, 4-[5-[1-(azetidin-3-yl)pyrazol-4-yl]benzimidazol-1-yl]-2,6-dimethoxy-N-(2,2,2-trifluoroethyl)benzamide] | 7.00 to 10.00 | – |
| 6.00 to 7.00 | 8.00 to 11.00 | 7.00 to 8.00 | 8.00 to 11.00 | – | – | – | – | COc1cc(-n2cnc3cc(-c4cnn(C5CN(CC#N)C5)c4)ccc32)cc(OC)c1C(=O)NCC(F)(F)F [Cpd 100, 4-[5-[1-[1-(cyanomethyl)azetidin-3-yl]pyrazol-4-yl]benzimidazol-1-yl]-2,6-dimethoxy-N-(2,2,2-trifluoroethyl)benzamide] | 7.00 to 10.00 | – |
| 6.00 to 7.00 | 8.00 to 11.00 | 7.00 to 8.00 | 8.00 to 11.00 | – | – | – | – | COc1cc(-n2cnc3cc(-c4cnn(CC(C)C)c4)ccc32)cc(OC)c1C(=O)NCC(F)(F)F [Cpd 110, 4-[5-(1-isobutylpyrazol-4-yl)benzimidazol-1-yl]-2,6-dimethoxy-N-(2,2,2-trifluoroethyl)benzamide] | 7.00 to 10.00 | – |
| 7.00 to 10.00 | 8.00 to 11.00 | 7.00 to 8.00 | 8.00 to 11.00 | 8.00 to 11.00 | 8.00 to 11.00 | 8.00 to 11.00 | – | COc1cc(-c2cnc3cc(-c4cnn(C)c4)ccn23)cc2c1C(=O)N(CC(F)(F)F)CC2 [Cpd 225, 8-methoxy-6-[7-(1-methylpyrazol-4-yl)imidazo[1,2-a]pyridin-3-yl]-2-(2,2,2-trifluoroethyl)-3,4-dihydroisoquinolin-1-one] | – | ++ (>1.5-4.5) |
| 7.00 to 10.00 | 8.00 to 11.00 | – | 8.00 to 11.00 | – | – | – | 7.00 to 8.00 | COc1cc(-n2cnc3cc(-c4cnn(C(C)C)c4)ccc32)cc(OC)c1C(=O)NCC(F)(F)F [compound 95, 4-[5-(1-isopropylpyrazol-4-yl)benzimidazol-1-yl]-2,6-dimethoxy-N-(2,2,2-trifluoroethyl)benzamide] | 7.00 to 10.00 | – |
| 7.00 to 10.00 | 8.00 to 11.00 | 7.00 to 8.00 | 8.00 to 11.00 | – | – | – | – | COc1cc(-n2cnc3cc(-c4cnn(C(F)F)c4)ccc32)cc(OC)c1C(=O)NCC(F)(F)F [compound 97, 4-[5-[1-(difluoromethyl)pyrazol-4-yl]benzimidazol-1-yl]-2,6-dimethoxy-N-(2,2,2-trifluoroethyl)benzamide] | 7.00 to 10.00 | – |
| 7.00 to 10.00 | 8.00 to 11.00 | 8.00 to 11.00 | 8.00 to 11.00 | – | – | – | – | COc1cc(-c2cnn3cc(-c4cnn(C)c4)ccc23)cc(OC)c1C(=O)NCC(F)(F)F [compound 99, 2,6-dimethoxy-4-[6-(1-methylpyrazol-4-yl)pyrazolo[1,5-a]pyridin-3-yl]-N-(2,2,2-trifluorocthyl)benzamide] | 7.00 to 10.00 | – |
| 7.00 to 10.00 | 8.00 to 11.00 | 7.00 to 8.00 | 8.00 to 11.00 | – | – | – | – | COc1cc(-n2cnc3cc(-c4cc(C)n[nH]4)ccc32)cc(OC)c1C(=O)NCC(F)(F)F [compound 101, 2,6-dimethoxy-4-[5-(3-methyl-1H-pyrazol-5-yl)benzimidazol-1-yl]-N-(2,2,2-trifluoroethyl)benzamide] | 7.00 to 10.00 | – |
| 7.00 to 10.00 | 8.00 to 11.00 | 8.00 to 11.00 | 8.00 to 11.00 | – | – | – | – | CCCn1cc(-c2ccc3c(c2)ncn3-c2cc(OC)c(C(=O)NCC(F)(F)F)c(OC)c2)cn1 [compound 103, 2,6-dimethoxy-4-[5-(1-propylpyrazol-4-yl)benzimidazol-1-yl]-N-(2,2,2-trifluoroethyl)benzamide] | 7.00 to 10.00 | – |
| 6.00 to 7.00 | 8.00 to 11.00 | 7.00 to 8.00 | 8.00 to 11.00 | – | – | – | – | COc1cc(-c2cnc3cc(-c4cnn(C)c4)cnn23)cc(OC)c1C(=O)NCC(F)(F)F [compound 107] | 7.00 to 10.00 | – |
| 6.00 to 7.00 | 7.00 to 8.00 | 7.00 to 8.00 | 7.00 to 8.00 | – | – | – | – | COc1cc(-n2cnc3cc(-c4cc(C)no4)ccc32)cc(OC)c1C(=O)NCC(F)(F)F [compound 109, 2.6-dimethoxy-4-[5-(3-methylisoxazol-5-yl)benzimidazol-1-yl]-N-(2,2,2-trifluoroethyl)benzamide] | 6.00 to 7.00 | – |
| 7.00 to 10.00 | 8.00 to 11.00 | 8.00 to 11.00 | 8.00 to 11.00 | – | – | – | – | CCNC(=O)c1c(OC)cc(-c2cnn3cc(-c4cnn(C)c4)ccc23)cc1OC(F)F [compound 117, 2-(difluoromethoxy)-N-ethyl-6-methoxy-4-[6-(1-methylpyrazol-4-yl)pyrazolo[1,5-a]pyridin-3-yl]benzamide] | 7.00 to 10.00 | – |
| 7.00 to 10.00 | 8.00 to 11.00 | 8.00 to 11.00 | 8.00 to 11.00 | 8.00 to 11.00 | 8.00 to 11.00 | 8.00 to 11.00 | – | COc1cc(-c2cnc3cc(-c4cnn(C)c4)ccn23)cc(OC)c1C(=O)NCC(F)F [compound 133, N-(2,2-difluoroethyl)-2,6-dimethoxy-4-[7-(1-methylpyrazol-4-yl)imidazo[1,2-a]pyridin-3-yl]benzamide] | – | ++ (>1.5-4.5) |
| 6.00 to 7.00 | 7.00 to 8.00 | 7.00 to 8.00 | 7.00 to 8.00 | 7.00 to 8.00 | 7.00 to 8.00 | 7.00 to 8.00 | – | COc1cc(-n2cnc3cc(-c4cnn(C)c4)ccc32)cc(OC)c1C(=O)N1CC(F)(F)C1 [compound 142, (3,3-difluoroazetidin-1-yl)-[2,6-dimethoxy-4-[5-(1-methylpyrazol-4-yl)benzimidazol-1-yl]phenyl]methanone] | – | ++ (>1.5-4.5) |
| 6.00 to 7.00 | 7.00 to 8.00 | 7.00 to 8.00 | 7.00 to 8.00 | – | – | – | – | COc1cc(-n2cnc3cc(-c4cnn(C)c4)ccc32)cc(OC)c1C(=O)N1CC(C)(C)C1 [compound 179, [2,6-dimcthoxy-4-[5-(1-methylpyrazol-4-yl)benzimidazol-1-yl]phenyl]-(3,3-dimethylazetidin-1-yl)methanone] | 6.00 to 7.00 | – |
| 6.00 to 7.00 | 8.00 to 11.00 | 7.00 to 8.00 | 8.00 to 11.00 | 8.00 to 11.00 | 7.00 to 8.00 | 8.00 to 11.00 | – | COc1cc(-c2cnc3cc(-c4cn(C)cn4)ccn23)cc(OC)c1C(=O)N[C@H](C)C(F)(F)F [compound 215, 2,6-dimethoxy-4-[7-(1-methylimidazol-4-yl)imidazo[1,2-a]pyridin-3-yl]-N-[(1R)-2,2,2-trifluoro-1-methyl-ethyl]benzamide] | – | ++ (>1.5-4.5) |
| 7.00 to 10.00 | 8.00 to 11.00 | 8.00 to 11.00 | 8.00 to 11.00 | 8.00 to 11.00 | 8.00 to 11.00 | 8.00 to 11.00 | – | COc1cc(-c2cnc3cc(-c4cn[nH]c4)ccn23)cc(OC)c1C(=O)NCC(F)(F)F [compound 227, 2,6-dimethoxy-4-[7-(1H-pyrazol-4-yl)imidazo[1,2-a]pyridin-3-yl]-N-(2,2,2-trifluoroethyl)benzamide] | – | +++ (>4.5) |
| 7.00 to 10.00 | 8.00 to 11.00 | 8.00 to 11.00 | 8.00 to 11.00 | 8.00 to 11.00 | 8.00 to 11.00 | 8.00 to 11.00 | – | CCOC(=O)Cn1cc(-c2ccn3c(-c4cc(OC)c(C(=O)NCC(F)(F)F)c(OC)c4)cnc3c2)cn1 [compound 230, ethyl 2-[4-[3-[3,5-dimethoxy-4-(2,2,2-trifluoroethyl-carbamoyl)phenyl]imidazo[1,2-a]pyridin-7-yl]pyrazol-1-yl]acetate] | – | +++ (>4.5) |
| 7.00 to 10.00 | 8.00 to 11.00 | 8.00 to 11.00 | 8.00 to 11.00 | 8.00 to 11.00 | 8.00 to 11.00 | 8.00 to 11.00 | – | CCOC(=O)C(C)n1cc(-c2ccn3c(-c4cc(OC)c(C(=O)NCC(F)(F)F)c(OC)c4)cnc3c2)cn1 (centres unmarked) [compound 263, ethyl 2-[4-[3-[3,5-dimethoxy-4-(2,2,2-trifluoroethyl-carbamoyl)phenyl]imidazo[1,2-a]pyridin-7-yl]pyrazol-1-yl]propanoate] | – | ++ (>1.5-4.5) |
